# Molecular target: T1, rat NaPi-2b (Rattus norvegicus, UniProt Q9JJ09)
# T1 construct: expressed in transfected cells; host or cells: Xenopus oocytes injected with cRNA
# T1 sequence (Q9JJ09 1-695): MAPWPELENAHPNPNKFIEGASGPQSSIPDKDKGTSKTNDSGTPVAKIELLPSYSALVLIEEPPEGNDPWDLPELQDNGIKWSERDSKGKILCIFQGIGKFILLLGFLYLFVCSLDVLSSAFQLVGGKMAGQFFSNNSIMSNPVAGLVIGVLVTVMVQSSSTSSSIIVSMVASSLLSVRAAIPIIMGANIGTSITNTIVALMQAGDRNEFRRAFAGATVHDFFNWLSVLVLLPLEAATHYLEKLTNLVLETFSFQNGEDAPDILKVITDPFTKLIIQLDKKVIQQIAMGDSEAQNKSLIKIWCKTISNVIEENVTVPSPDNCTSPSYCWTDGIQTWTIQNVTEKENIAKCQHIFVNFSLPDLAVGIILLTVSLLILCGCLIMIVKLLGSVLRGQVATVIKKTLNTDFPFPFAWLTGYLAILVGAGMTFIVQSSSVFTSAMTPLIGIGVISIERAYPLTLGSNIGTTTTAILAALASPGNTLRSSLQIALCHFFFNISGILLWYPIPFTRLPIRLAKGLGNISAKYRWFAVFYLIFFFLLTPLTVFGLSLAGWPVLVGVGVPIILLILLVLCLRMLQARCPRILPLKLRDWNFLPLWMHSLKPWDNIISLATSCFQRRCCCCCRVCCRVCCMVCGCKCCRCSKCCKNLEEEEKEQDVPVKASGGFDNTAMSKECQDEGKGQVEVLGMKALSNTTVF
# Assay: Sodium-dependent phosphate uptake of Xenopus oocytes which expressed NaPi-2b (32P)
# Assay type: cell-based
# Settings: for inhibition at 300 µM: phosphate uptake, oocytes expressing rat NaPi-2b, determined from inhibition curve; for IC50: Xenopus oocytes expressing rat NaPi-2b, 32P radioactive phosphorus, read-out: IC50 (phosphate uptake inhibitory activity)
# How it was run: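 Rat small-intestine NaPi-2b cRNA injected into Xenopus oocytes, expressed for 2 days. Sodium-dependent phosphate uptake measured with 32P; % inhibition at 300 and 100 μM taken from the same inhibition curve.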
inhibition at 300 µM,IC50,Structure (SMILES)
–,< 10 µM,"CCOCCN(CCOCC)Cc1ccc(C(=O)Nc2ccc(Br)cc2C(=O)N/N=C/c2ccc(C)c(C)c2)cc1 [Compound 733, 4-{[Bis-(2-ethoxy-ethyl)-amino]-methyl}-N-[4-bromo-2-(3,4-dimethyl-benzylidene-hydrazinocarbonyl)-phenyl]-benzamide]"
–,1.26 µM,"Cc1csc(NC(=O)c2cccc(CSCCCO)c2)c1C(=O)N/N=C/c1ccc(F)cc1 [Compound 559, N-[3-(4-Fluoro-benzylidene-hydrazinocarbonyl)-4-methyl-thiophen-2-yl]-3-(3-hydroxy-propylsulfanylmethyl)-benzamide]"
46.6%,–,"CN(CCCCCCN(C)Cc1cccc(C(=O)Nc2ccc(Cl)cc2C(=O)N/N=C/c2cccc(F)c2)c1)Cc1cccc(C(=O)Nc2ccc(Cl)cc2C(=O)N/N=C/c2cccc(F)c2)c1 [Compound 704, N1-[4-Chloro-2-({2-[(E)-1-(3-fluorophenyl)methylidene]hydrazino}carbonyl}phenyl}-3-{[{6-[(3-{[4-chloro-2-({2-[(E)-1-(3-fluorophenyl)methylidene]hydrazino}carbonyl}-anilino}carbonyl}benzyl}(methyl)amino)hexyl)(methyl)amino]methyl]-benzamide]"
51%,–,"CN(C)CCn1nnnc1SCc1cccc(C(=O)Nc2ccc(Cl)cc2C(=O)N/N=C/c2ccc(O)cc2)c1 [Compound 471, N-[4-Chloro-2-(4-hydroxy-benzylidene-hydrazinocarbonyl)-phenyl]-3-[1-(2-dimethylamino-ethyl)-1H-tetrazol-5-ylsulfanylmethyl]-benzamide]"
–,8.16 µM,"COc1ccc(C(=O)Nc2ccccc2C(=O)N/N=C/c2ccc(O)cc2)cc1OC [Compound 19, N-[2-(4-Hydroxy-benzylidene-hydrazinocarbonyl)-phenyl]-3,4-dimethoxy-benzamide]"
–,5.34 µM,"Cc1ccc(/C=N/NC(=O)c2cc(Br)ccc2NC(=O)c2ccncc2)cc1C [Compound 170, N-[4-Bromo-2-(3,4-dimethyl-benzylidene-hydrazinocarbonyl)-phenyl]-isonicotinamide]"
–,7.15 µM,"COc1ccc(C(=O)Nc2ccccc2C(=O)N/N=C/c2ccccc2C)cc1OC [Compound 3, 3,4-Dimethoxy-N-[2-(2-methyl-benzylidene-hydrazinocarbonyl)-phenyl]-benzamide]"
–,11.9 µM,"O=C(Nc1ccc(Br)cc1C(=O)NN=Cc1ccc(Cl)c(C(F)(F)F)c1)c1ccc(CNC(CN2CCOCC2)c2ccccc2)cc1 (stereo not shown) [Compound 747, N-[4-Bromo-2-(4-chloro-3-trifluoromethyl-benzylidene-hydrazinocarbonyl)-phenyl]-4-[(2-morpholin-4-yl-1-phenyl-ethylamino)-methyl]-benzamide]"
33.1%,–,"O=C(Nc1ccccc1C(=O)N/N=C/c1cccc(F)c1)c1ccccc1F [Compound 237, 2-Fluoro-N-[2-(3-fluoro-benzylidene-hydrazinocarbonyl)-phenyl]-benzamide]"
–,11.2 µM,"C/C(=N\NC(=O)c1cc(Cl)ccc1NC(=O)c1cccnc1)c1ccc(C)cc1 [Compound 217, N-[4-Chloro-2-(1-p-toluyl-ethylidene-hydrazinocarbonyl)-phenyl]-nicotinamide]"
–,9.13 µM,"CCN(CC)CCN(C)Cc1cccc(C(=O)Nc2sccc2C(=O)N/N=C/c2ccc(Cl)c(C(F)(F)F)c2)c1 [Compound 668, N-[3-(4-Chloro-3-trifluoromethyl-benzylidene-hydrazinocarbonyl)-thiophen-2-yl]-3-{[(2-diethylamino-ethyl)-methyl-amino]-methyl}-benzamide]"
–,5.12 µM,"O=C(Nc1ccc(Br)cc1C(=O)N/N=C/c1ccc(F)cc1)c1ccc(CN2CCC(O)CC2)cc1 [Compound 327, N-[4-Bromo-2-(4-fluoro-benzylidene-hydrazinocarbonyl)-phenyl]-4-(4-hydroxy-piperidin-1-ylmethyl)-benzamide]"
–,18.8 µM,"Cc1ccc(/C=N/NC(=O)c2cc(Br)ccc2NC(=O)c2ccc(CNCCCN(C)c3ccccc3)cc2)cc1C [Compound 757, N-[4-Bromo-2-(3,4-dimethyl-benzylidene-hydrazinocarbonyl)-phenyl]-4-{[3-(methyl-phenyl-amino)-propylamino]-methyl}-benzamide]"
–,3.94 µM,"CCN(CC)CCN(C)Cc1cccc(C(=O)Nc2ccc(OC)cc2C(=O)N/N=C/c2ccc(OC)cc2)c1 [Compound 1024, 3-{[(2-Diethylamino-ethyl)-methyl-amino]-methyl}-N-[4-methoxy-2-(4-methoxy-benzylidene-hydrazinocarbonyl)-phenyl]-benzamide]"
–,4.84 µM,"Cc1cccc(/C=N/NC(=O)c2cc(Br)ccc2NC(=O)c2ccncc2)c1 [Compound 168, N-[4-Bromo-2-(3-methyl-benzylidene-hydrazinocarbonyl)-phenyl]-isonicotinamide]"

# More lines, now with the values behind:
Structure (SMILES),inhibition at 300 µM,IC50
"Cc1ccc(/C=N/NC(=O)c2cc(Br)ccc2NC(=O)c2ccc(CN3CCN(c4ccccn4)CC3)cc2)cc1C [Compound 772, N-[4-Bromo-2-(3,4-dimethyl-benzylidene-hydrazinocarbonyl)-phenyl]-4-(4-pyridin-2-yl-piperazin-1-ylmethyl)-benzamide]",67.7%,–
"CCN(CC)CCNCc1cccc(C(=O)Nc2c(C)csc2C(=O)N/N=C/c2ccc(Cl)c(C(F)(F)F)c2)c1 [Compound 539, N-[2-(4-Chloro-3-trifluoromethyl-benzylidene-hydrazinocarbonyl)-4-methyl-thiophen-3-yl]-3-[(2-diethylamino-ethylamino)-methyl]-benzamide]",88.4%,–
"CCN(CC)CCN(C)Cc1cccc(C(=O)Nc2ccc(OC)cc2C(=O)N/N=C/c2cccc(F)c2)c1 [Compound 1022, 3-{[(2-Diethylamino-ethyl)-methyl-amino]-methyl}-N-[2-(3-fluoro-benzylidene-hydrazinocarbonyl)-4-methoxy-phenyl]-benzamide]",–,3.23 µM
"O=C(Nc1ccc(Br)cc1C(=O)N/N=C/c1ccc(Cl)c(C(F)(F)F)c1)c1ccc(CN2CCC(O)CC2)cc1 [Compound 329, N-[4-Bromo-2-(4-chloro-3-trifluoromethyl-benzylidene-hydrazinocarbonyl)-phenyl]-4-(4-hydroxy-piperidin-1-ylmethyl)-benzamide]",–,5.63 µM
"Cc1cccc(/C=N/NC(=O)c2ccccc2NC(=O)c2cccc(F)c2)c1 [Compound 83, 3-Fluoro-N-[2-(3-methyl-benzylidene-hydrazinocarbonyl)-phenyl]-benzamide]",–,2.98 µM
"Cc1ccc(/C=N/NC(=O)c2c(NC(=O)c3cccc(CN(CC(C)O)CC(C)O)c3)sc(C)c2C)cc1C (stereo not shown) [Compound 844, 3-{[Bis-(2-hydroxy-propyl)-amino]-methyl}-N-[3-(3,4-dimethyl-benzylidene-hydrazinocarbonyl)-4,5-dimethyl-thiophen-2-yl]-benzamide]",–,< 3 µM
"CCN(CC)CCN(C)Cc1cccc(C(=O)Nc2ccc(OCC3CCCCC3)cc2C(=O)N/N=C/c2ccc(C)cc2)c1 [Compound 1047, N-[4-Cyclohexylmethoxy-2-(4-methyl-benzylidene-hydrazinocarbonyl)-phenyl]-3-{[(2-diethylamino-ethyl)-methyl-amino]-methyl}-benzamide]",–,< 1 µM
"Cc1csc(NC(=O)c2cccc(CN(CC(C)O)CC(C)O)c2)c1C(=O)N/N=C/c1ccc(F)cc1 (stereo not shown) [Compound 589, 3-{[Bis-(2-hydroxy-propyl)-amino]-methyl}-N-[3-(4-fluoro-benzylidene-hydrazinocarbonyl)-4-methyl-thiophen-2-yl]-benzamide]",–,< 3 µM
"COc1ccc(C(=O)Nc2cc(OC)c(OC)cc2C(=O)N/N=C/c2ccccc2)cc1OC [Compound 227, N-[2-(Benzylidene-hydrazinocarbonyl)-4,5-dimethoxy-phenyl]-3,4-dimethoxy-benzamide]",–,7.4 µM
"CCN(CC)CCN(C)Cc1cccc(C(=O)Nc2sc3c(c2C(=O)N/N=C/c2ccc(C)cc2)CCCC3)c1 [Compound 610, 3-{[(2-Diethylamino-ethyl)-methyl-amino]-methyl}-N-[3-(4-methyl-benzylidene-hydrazinocarbonyl)-4,5,6,7-tetrahydro-benzo-[b]thiophen-2-yl]-benzamide]",–,1.82 µM
"COc1ccccc1/C=C/C=N/NC(=O)c1cc(Br)ccc1NC(=O)c1ccncc1 [Compound 353, N-{4-Bromo-2-[3-(2-methoxy-phenyl)-allylidene-hydrazinocarbonyl]-phenyl}-isonicotinamide]",–,8.85 µM
"O=C(Nc1ccc(Cl)cc1C(=O)N/N=C/c1cccc(F)c1)c1cccc(CN2CCC(N3CCCCC3)CC2)c1 [Compound 368, 3-[1,4′]Bipiperidinyl-1′-ylmethyl-N-[4-chloro-2-(3-fluoro-benzylidene-hydrazinocarbonyl)-phenyl]-benzamide]",–,1.37 µM
"Cc1ccc(/C=N/NC(=O)c2cc3ccccc3cc2NC(=O)c2cccc(CN3CCN(CCO)CC3)c2)cc1C [Compound 971, N-[3-(3,4-Dimethyl-benzylidene-hydrazinocarbonyl)-naphthalen-2-yl]-3-[4-(2-hydroxy-ethyl)-piperazin-1-ylmethyl]-benzamide]",–,< 3 µM
